{"source": "patent US20250312357A1", "about": "“PROCESS OF PHYTOCA[…] FORMULATION AND USE IN THE MANAGEMENT OF PAIN” (COUNCIL OF SCIENTIFIC & INDUSTRIAL RESEARCH, priority 2022, published 2025)", "key": {"[1]": {"test_system": "paclitaxel (PT) induced neuropathic pain", "experiment": "Randall Selitto test for mechanical hyperalgesia in paclitaxel induced neuropathic (cancer) pain model", "format": "in vivo, male BALB/c mice", "conditions": "paclitaxel 2 mg/kg i.p. (pain induction), all groups; FIGS. 7a and 7b", "procedure": "a. In-Vivo Efficacy Study in Cancer Pain Model Using the Randall Selitto Test for Assessment of Mechanical Hyperalgesia in Male BALB/c Mice\nAnimals: Male BALB/C mice of weight range 25-30 g were used for evaluation of CS-016-B1 in paclitaxel (PT) induced neuropathic pain. Animals were housed under a 12-hour light/dark cycle in a temperature (65-75° F.; ^˜18-23° C.) and humidity-controlled (40-60%) environment. They were supplied with free access to the food and water (ad libitum). Prior to initiation of study all the animals were acclimatized for one week under standard laboratory conditions, animals were drug naive with no prior procedures performed. All testing were performed from 1 to 4 p.m. […]\nDevelopment of neuropathic pain in mice: Neuropathic pain in BALB/C mice was induced by intraperitoneal (i.p.) administration of Paclitaxel (PT) at 2 mg/kg for consecutive 5 days (Sci. Rep., 2014, 4, 1). Before paclitaxel injection baseline values of pain threshold for all the animals were recorded. […]\nExperimental protocol: The present study was comprised of five experimental groups. […] Pain threshold was assessed using Randall Selitto for assessment of mechanical hyperalgesia at different time points like 0, 5th, 10th, and 15th days post dosing. […]\nRandall Selitto Test: The nociceptive withdrawal threshold was assessed by using the Randall-Selitto algesimeter (Analgesy-Meter, Ugo Basile). […]"}, "[2]": {"test_system": "thermal nociceptive response", "experiment": "Tail flick assay for thermal nociceptive response", "format": "in vivo, female BALB/c mice", "conditions": "fractions 10 mg/kg p.o., diclofenac sodium 50 mg/kg i.p.", "procedure": "b. In-vivo efficacy study in pain model using the tail flick Assay for assessment of thermal nociceptive response in female BALB/c mice\nTail Flick Test: Prior to starting the test, the intensity of the beam was adjusted to produce a latency of approximately 3-6 sec. The was performed three times for each animal, at 3- to 5-min intervals, and the average of the three times recorded as the average reaction time (seconds). The light beam was delivered about 15 mm from the tip of the tail for mice. To minimize the chance of tissue trauma from heat exposure, a cut-off time of 10 sec was established, at which time the animal was removed from the test (Curr. Protoc. Neurosci., 2007, 41, 8.9.1). Mice were treated with diclofenac sodium (50 mg/kg. i.p.), a standard analgesic drug, CS-016-C2-F2-F2-F2 (10 mg/kg. p.o), CS-016-C2-F2-F3-F2 (10 mg/kg, p.o). and CS-016-B2 (10 mg/kg, p.o) each group contained three animals (n=3).\nTail Flick Assay in Female BALB/c Mice. […] The data were analysed using graph-pad prism software (8.0.2). […]"}}}
{"smiles": "CC(=O)O[C@H]1C(=O)[C@@]2(C)[C@H]([C@H](OC(=O)c3ccccc3)[C@]3(O)C[C@H](OC(=O)[C@H](O)[C@@H](NC(=O)c4ccccc4)c4ccccc4)C(C)=C1C3(C)C)[C@]1(OC(C)=O)CO[C@@H]1C[C@@H]2O", "note": "[paclitaxel]", "values": [{"measurement": "mechanical threshold compared with the baseline data", "setting": "[1]", "result": "significant reduction in mechanical threshold"}]}
{"smiles": "O=C(O)Cc1ccccc1Nc1c(Cl)cccc1Cl", "note": "[diclofenac sodium]", "values": [{"measurement": "latency time at 4 h relative to baseline", "setting": "[2]; 4 h after treatment", "result": "comparable to that of baseline data"}, {"measurement": "time till which the effect on latency time sustained", "setting": "[2]", "result": 3, "unit": "h"}]}
